For four compounds, Activity results are on record in ChEMBL document CHEMBL1212903, “Neuroprotective xanthone glycosides from Swertia punicea” (2010).

Experiment [1] concerns PC-12. Briefly: Neuroprotective activity in rat PC12 cells assessed as protection against H2O2-induced cell damage at 25 ug/ml after 1 hr by MTT assay relative to control. The experiment is classed as functional. (In general: Tetrazolium assays rely on reduction of a dye to a coloured formazan, in cell work by metabolically active cells.)
The subject of experiment [2] is PC-12. Briefly: Neuroprotective activity in rat PC12 cells assessed as protection against H2O2-induced cell damage at 12.5 ug/ml after 1 hr by MTT assay relative to control. Type of experiment: functional.

As to `CC1=NN(c2ccccc2)C(=O)C1` [EDARAVONE], the results for the Activity with PC-12 [1] and in the experiment with PC-12 [2] were 86.9% and 74.3%, respectively.
On the same counts, the results for `O=c1c2c(O)c(-c3cc(O)c4oc5cc(O)cc(O)c5c(=O)c4c3O)c(O)cc2oc2c(O)ccc(O[C@@H]3O[C@H](CO)[C@@H](O)[C@H](O)[C@H]3O)c12` [swertiabisxanthone I] are 123% and 89.1%.
Consider `O=c1c2c(oc3cc(O)c(-c4cc(O)c5oc6cc(O)cc(O)c6c(=O)c5c4O)c(O)c13)[C@H](O)CC[C@@H]2O[C@@H]1O[C@H](CO)[C@@H](O)[C@H](O)[C@H]1O` [PUNICEASIDE B], for which the results for the Activity in the experiment with PC-12 [1] and in the experiment on PC-12 [2] were 98.1% and 75.1%, respectively.
`O=c1c2cc(O)c(O)cc2oc2c(-c3cc(O)c4oc5cc(O)cc(O)c5c(=O)c4c3O)c(O)c([C@@H]3O[C@H](CO)[C@@H](O)[C@H](O)[C@H]3O)c(O)c12`: the figures for the Activity in the experiment on PC-12 [1] and in the experiment on PC-12 [2] were 157.8% and 95.5%, respectively.
